Series [1] concerns HeLa. Description: Cytotoxicity against human HeLa cells assessed as reduction in cell viability at 100 uM incubated for 4 hrs under dark condition by MTT assay. It is filed as functional, cell-based. For orientation: Formazan colour is commonly taken as a measure of viable cells.
Series [2] has as its system MCF7. Description: Cytotoxicity against human MCF7 cells assessed as reduction in cell viability at 100 uM incubated for 4 hrs under dark condition by MTT assay. It is filed as functional, cell-based.
The test system of series [3] is A-375. Description: Cytotoxicity against human A-375 cells assessed as reduction in cell viability at 100 uM incubated for 4 hrs under dark condition by MTT assay. In kind it is functional, cell-based.
The test system of series [4] is HeLa. Kind of series: Cytotoxicity against human HeLa cells assessed as reduction in cell viability preincubated for 4 hrs under dark condition followed by irradiation with blue light at 2.5 J.cm^-2 energy level for 5 mins and measured after 18 hrs by MTT assay. It is filed as functional, cell-based. The note with it: light or radiation study.
The subject of series [5] is MCF7. Kind of series: Cytotoxicity against human MCF7 cells assessed as reduction in cell viability preincubated for 4 hrs under dark condition followed by irradiation with blue light at 2.5 J.cm^-2 energy level for 5 mins and measured after 18 hrs by MTT assay. It is filed as functional, cell-based. The note with it: MCF7, light or radiation study.
Series [6] concerns A-375. Description: Cytotoxicity against human A-375 cells assessed as reduction in cell viability preincubated for 4 hrs under dark condition followed by irradiation with blue light at 2.5 J.cm^-2 energy level for 5 mins and measured after 18 hrs by MTT assay. It is filed as functional, cell-based. The note with it: A-375, light or radiation study.
The nature of series [7]: Drug metabolism assessed as esterase (unknown origin) mediated hydrolysis by measuring 5-Aminolevulinic acid formation. The note with it: human. In kind it is ADME.
Series [8] in a line: Drug metabolism assessed as esterase (unknown origin) mediated hydrolysis by measuring hydroxypyridinone formation. Particulars: human. It is filed as ADME.
Series [9] in a line: Prodrug release in human Hela cells assessed as 3-[(1Z,4Z,9Z,15Z)-7-(2-carboxyethyl)-3,8,12,17-tetramethyl-13,18-divinyl-21,23-dihydroporphyrin-2-yl]propanoic acid release by measuring increase in fluorescence intensity at 20 to 80 uM by microplate reader analysis. In kind it is ADME, cell-based. Particulars: dose 20-80 µM.
Series [10] is described as follows: Prodrug release in human MCF7 cells assessed as 3-[(1Z,4Z,9Z,15Z)-7-(2-carboxyethyl)-3,8,12,17-tetramethyl-13,18-divinyl-21,23-dihydroporphyrin-2-yl]propanoic acid release by measuring increase in fluorescence intensity at 20 to 80 uM by microplate reader analysis. It is filed as ADME, cell-based. Particulars: mcf7, 80 µM, dose 20-80 µM.
Series [11] in a line: Prodrug release in human A-375 cells assessed as 3-[(1Z,4Z,9Z,15Z)-7-(2-carboxyethyl)-3,8,12,17-tetramethyl-13,18-divinyl-21,23-dihydroporphyrin-2-yl]propanoic acid release by measuring increase in fluorescence intensity at 20 to 80 uM by microplate reader analysis. In kind it is ADME, cell-based. Particulars: a-375, 80 µM, dose 20-80 µM.
Series [12] in a line: Prodrug release in human Hela cells assessed as 3-[(1Z,4Z,9Z,15Z)-7-(2-carboxyethyl)-3,8,12,17-tetramethyl-13,18-divinyl-21,23-dihydroporphyrin-2-yl]propanoic acid release by measuring fold increase in fluorescence intensity at 20 to 80 uM by microplate reader analysis relative to 5-Aminolevulinic acid. It is filed as ADME, cell-based. The note with it: dose 20-80 µM.
The nature of series [13]: Prodrug release in human MCF7 cells assessed as 3-[(1Z,4Z,9Z,15Z)-7-(2-carboxyethyl)-3,8,12,17-tetramethyl-13,18-divinyl-21,23-dihydroporphyrin-2-yl]propanoic acid release by measuring fold increase in fluorescence intensity at 20 to 80 uM by microplate reader analysis relative to 5-Aminolevulinic acid. It is filed as ADME, cell-based. The note with it: mcf7, 80 µM, dose 20-80 µM.

A short description of series [14]: Prodrug release in human A-375 cells assessed as 3-[(1Z,4Z,9Z,15Z)-7-(2-carboxyethyl)-3,8,12,17-tetramethyl-13,18-divinyl-21,23-dihydroporphyrin-2-yl]propanoic acid release by measuring fold increase in fluorescence intensity at 20 to 80 uM by microplate reader analysis relative to 5-Aminolevulinic acid. In kind it is ADME, cell-based. The note with it: a-375, 80 µM, dose 20-80 µM.

Series [15] has as its system HeLa. Kind of series: Cytotoxicity against human HeLa cells assessed as reduction in cell viability preincubated for 4 hrs under dark condition in presence of 5-aminolevulinic acid followed by irradiation with blue light at 2.5 J.cm^-2 energy level for 5 mins and measured after 18 hrs by MTT assay. In kind it is functional, cell-based. Particulars: light or radiation study.

In series [16] the test system is MCF7. Kind of series: Cytotoxicity against human MCF7 cells assessed as reduction in cell viability preincubated for 4 hrs under dark condition in presence of 5-aminolevulinic acid followed by irradiation with blue light at 2.5 J.cm^-2 energy level for 5 mins and measured after 18 hrs by MTT assay. In kind it is functional, cell-based. Particulars: MCF7, light or radiation study.

For series [17], the system named is A-375. Kind of series: Cytotoxicity against human A-375 cells assessed as reduction in cell viability preincubated for 4 hrs under dark condition in presence of 5-aminolevulinic acid followed by irradiation with blue light at 2.5 J.cm^-2 energy level for 5 mins and measured after 18 hrs by MTT assay. In kind it is functional, cell-based. The note with it: A-375, light or radiation study.

Series [18] deals with HeLa. Kind of series: Cytotoxicity against human HeLa cells assessed as reduction in cell viability preincubated for 4 hrs under dark condition in presence of deferiprone followed by irradiation with blue light at 2.5 J.cm^-2 energy level for 5 mins and measured after 18 hrs by MTT assay. The note with it: light or radiation study. It is filed as functional, cell-based.
Series [19] has as its system MCF7. Description: Cytotoxicity against human MCF7 cells assessed as reduction in cell viability preincubated for 4 hrs under dark condition in presence of deferiprone followed by irradiation with blue light at 2.5 J.cm^-2 energy level for 5 mins and measured after 18 hrs by MTT assay. In kind it is functional, cell-based. Particulars: MCF7, light or radiation study.

For series [20], the system named is A-375. Kind of series: Cytotoxicity against human A-375 cells assessed as reduction in cell viability preincubated for 4 hrs under dark condition in presence of deferiprone followed by irradiation with blue light at 2.5 J.cm^-2 energy level for 5 mins and measured after 18 hrs by MTT assay. In kind it is functional, cell-based. Particulars: A-375, light or radiation study.

The source made the active and inactive calls. No cut-off for these calls is given here.

Consider `CCCCCCn1c(C)cc(=O)c(O)c1COC(=O)CCC(=O)CN.Cl`, for which the result in the series with HeLa [1], with MCF7 [2] and in the series on A-375 [3] was inactive. In addition, the 50% inhibitory concentration (IC50) was determined as 24.2 µM in the series with HeLa [4], 43.3 µM in the series on MCF7 [5] and 28 µM in the series on A-375 [6]. Further, the Drug metabolism result in [7], in series [8], in series [9], in series [10] and in series [11] was “Metabolite_Detected” in each case. Moreover, the results for the “fold change (FC)” value in [12], in series [13] and in series [14] were 18.9, 5.3 and 2.8, respectively.

`CCCCCn1c(C)cc(=O)c(O)c1COC(=O)CCC(=O)CN.Cl`: the outcome in the series with HeLa [1], in the series with MCF7 [2] and in the series with A-375 [3] was inactive. Moreover, the IC50 with HeLa [4] came to 47.5 µM; in the series on MCF7 [5], 45.8 µM; in the series on A-375 [6] it was 46.4 µM. In addition, the Drug metabolism entry in series [7], in series [8], in [9], in [10] and in series [11] was “Metabolite_Detected” in each case.

As to `COCCCn1c(C)cc(=O)c(O)c1COC(=O)CCC(=O)CN.Cl`, the result in the series with HeLa [1], in the series on MCF7 [2] and in the series with A-375 [3] was inactive. Further, the figures for the concentration for half-maximal inhibition (IC50) in the series with HeLa [4], with MCF7 [5] and in the series on A-375 [6] were 65.7 µM, 57.2 µM and 50.6 µM, respectively. Moreover, the Drug metabolism result in series [7], in [8], in series [9], in series [10] and in series [11] was “Metabolite_Detected” throughout.

Turning to `Cc1c(O)c(=O)ccn1C` [DEFERIPRONE], the IC50 in the series on HeLa [15] stood at 61.8 µM; with MCF7 [16], 65 µM; in the series with A-375 [17], 27.2 µM.

For `NCC(=O)CCC(=O)O` [AMINOLEVULINIC ACID], the IC50 was > 100 µM in the series with HeLa [4]; > 100 µM in the series with MCF7 [5]; > 100 µM with A-375 [6]; 61.8 µM in the series with HeLa [18]; 65 µM in the series with MCF7 [19]; 27.2 µM in the series with A-375 [20].

Usually IC50 stands for the point on the concentration scale where inhibition reaches its midpoint.
